Experimental data published in PubChem BioAssay (NCI).
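1) Cells in 96-well plates. 2) Compound, 48 h, 5 concentrations. 3) Linear interpolation between surrounding doses. 4) Unreached endpoint = highest concentration. GI50: concentration for 50% inhibition of growth. TGI is the concentration that stops growth completely.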

Legend:
Assay in all cases: NCI tumour cell line growth inhibition, 48 h
[1] = test system: NCI-H23 lung
[2] = test system: NCI-H460 lung
[3] = test system: NCI-H522 lung
[4] = test system: NCI/ADR-RES ovarian
[5] = test system: OVCAR-3 ovarian
[6] = test system: OVCAR-4 ovarian
[7] = test system: OVCAR-5 ovarian
[8] = test system: OVCAR-8 ovarian
[9] = test system: PC-3 prostate
[10] = test system: RPMI-8226 leukemia
[11] = test system: RXF 393 renal
[12] = test system: SF-268 CNS
[13] = test system: SF-295 CNS
[14] = test system: SF-539 CNS
[15] = test system: SK-MEL-2 melanoma
[16] = test system: SK-MEL-28 melanoma
[17] = test system: SK-MEL-5 melanoma
[18] = test system: SK-OV-3 ovarian
[19] = test system: SN12C renal
[20] = test system: SNB-19 CNS
[21] = test system: SNB-75 CNS
[22] = test system: SR leukemia
[23] = test system: SW-620 colon
[24] = test system: T-47D breast
[25] = test system: TK-10 renal
[26] = test system: U251 CNS
[27] = test system: UACC-257 melanoma
[28] = test system: UACC-62 melanoma
[29] = test system: UO-31 renal

Structure (SMILES): O=C(N/N=C/c1ccc([N+](=O)[O-])o1)c1[nH]c2ccc(Br)cc2c1-c1ccccc1
- GI50 [1]: 393 nM
- TGI [1]: 4160 nM
- GI50 [2]: 331 nM
- TGI [2]: 1000 nM
- GI50 [3]: 37.4 nM
- TGI [3]: 345 nM
- GI50 [4]: 234 nM
- TGI [4]: 2830 nM
- GI50 [5]: 433 nM
- TGI [5]: 4090 nM
- GI50 [6]: 720 nM
- TGI [6]: 10500 nM
- GI50 [7]: 439 nM
- TGI [7]: 14000 nM
- GI50 [8]: 241 nM
- TGI [8]: 677 nM
- GI50 [9]: 400 nM
- TGI [9]: 6390 nM
- GI50 [10]: 357 nM
- TGI [10]: 12800 nM
- GI50 [11]: 294 nM
- TGI [11]: 1090 nM
- GI50 [12]: 564 nM
- TGI [12]: 11000 nM
- GI50 [13]: 189 nM
- TGI [13]: 1230 nM
- GI50 [14]: 177 nM
- TGI [14]: 514 nM
- GI50 [15]: 335 nM
- TGI [15]: 1700 nM
- GI50 [16]: 1170 nM
- TGI [16]: 7190 nM
- GI50 [17]: 235 nM
- TGI [17]: 638 nM
- GI50 [18]: 501 nM
- TGI [18]: 8370 nM
- GI50 [19]: 323 nM
- TGI [19]: 1980 nM
- GI50 [20]: 337 nM
- TGI [20]: 12100 nM
- GI50 [21]: 216 nM
- TGI [21]: 1550 nM
- GI50 [22]: 143 nM
- TGI [22]: 9090 nM
- GI50 [23]: 359 nM
- TGI [23]: 1970 nM
- GI50 [24]: 1790 nM
- TGI [24]: 24000 nM
- GI50 [25]: 1530 nM
- TGI [25]: 10100 nM
- GI50 [26]: 303 nM
- TGI [26]: 1560 nM
- GI50 [27]: 542 nM
- TGI [27]: 4350 nM
- GI50 [28]: 150 nM
- TGI [28]: 2070 nM
- GI50 [29]: 431 nM
- TGI [29]: 7820 nM
